Source: patent US20080194646A1, “Methods For Avoiding Edema in the Treatment of Metabolic, Inflammatory, and Cardiovascular Disorders” (priority 2005, published 2008)

Legend:
[1] = plasma hydrolysis of prodrug esters of (−) CPTA; assay type: in vitro ADME; details: human plasma (heparinized, pooled), 37° C., 125 or 250 μM prodrug; read-out: Plasma T1/2
Method: This example illustrates the plasma hydrolysis of various prodrug esters of the (S)-enantiomer of CPTA at physiological conditions. Hydrolysis was monitored and analyzed by HPLC. The hydrolytic product was identified by comparison to authentic (−) CPTA and the hydrolytic rates were calculated.
Human plasma (heparinized, pooled) was obtained from Golden West Biololgicals Inc., USA; Plasma incubation was carried out in a Water Bath Shaker (New Brunswick Scientific, Inc.); Sample analyses were carried out on Agilent HPLC 1100 system.
Prepare 31.25 or 62.5 mM prodrug stock solutions in 100% DMSO. Add 4 μL of 31.25 or 62.5 mM prodrug stock solutions to 1.0 mL of plasma in a microcentrifuge tube to make plasma concentration at 125 or 250 μM, mix gently. Aliquots of 50 μL are transferred to 15 microcentrifuge vials. Three samples are immediately removed to a freezer at about −80° C. (0 time point), the remaining samples are incubated in a bath shaker at 37° C. Three samples are removed at 30 min, 2, 7 and 24 hr, and stored at −80° C. until analysis. The relative concentrations of MBX-compounds are determined by HPLC methods. If there are enough data points, the hydrolytic rate can be calculated using WinNonlin software. Table 10 provides a summary of plasma half-lives of some pro-drug esters and FIGS. 20A-20G illustrate the hydrolytic curves of those prodrug esters. […]

[2] = tested on: type 2 diabetics with inadequate control on insulin; experiment: two randomized, double-blind, placebo-controlled studies on type 2 diabetics with inadequate control on insulin; assay type: in vivo, human
Description: Example 9 presents the results of two randomized, double-blind, placebo-controlled, multi-centre studies on type 2 diabetics with inadequate control on insulin. […] Both studies were about 4 months long, with a stabilization/run in period for 2 to 4 weeks and a 3 month treatment period. Endpoints included fasting plasma glucose (FPG), HbA1c, weight, and the incidence of edema.

[3] = target: T1, PPARγ (Homo sapiens, UniProt P37231); experiment: PPARγ partial agonism (Example 8, FIG. 6); assay type: cell-based
T1 sequence (P37231 1-505): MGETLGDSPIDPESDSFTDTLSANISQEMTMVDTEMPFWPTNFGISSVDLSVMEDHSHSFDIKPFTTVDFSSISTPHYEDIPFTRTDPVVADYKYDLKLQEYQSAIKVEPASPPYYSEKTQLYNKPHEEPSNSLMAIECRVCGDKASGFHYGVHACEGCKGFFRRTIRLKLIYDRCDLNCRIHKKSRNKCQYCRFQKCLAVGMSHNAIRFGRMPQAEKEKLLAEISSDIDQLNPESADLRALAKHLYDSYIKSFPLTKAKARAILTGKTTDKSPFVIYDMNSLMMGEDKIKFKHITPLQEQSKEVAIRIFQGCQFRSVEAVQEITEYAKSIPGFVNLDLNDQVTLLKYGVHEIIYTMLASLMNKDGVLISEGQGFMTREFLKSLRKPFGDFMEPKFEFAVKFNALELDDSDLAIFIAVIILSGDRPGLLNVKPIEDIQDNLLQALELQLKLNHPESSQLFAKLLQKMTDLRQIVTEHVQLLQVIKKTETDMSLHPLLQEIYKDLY

[4] = tested on: human subjects also receiving glyburide; experiment: 14 days of treatment in human subjects also receiving glyburide; assay type: in vivo
Description: The data for pioglitazone (Actos) is taken from Goldberg R B et al., Diabetes Care 28(7):1547-54 (2005), which is incorporated herein by reference.

[5] = tested on: rats; experiment: separate animal studies, heart weight and fluid accumulation (rats); assay type: in vivo; details: therapeutically relevant doses, data not shown
[6] = tested on: monkeys; experiment: separate animal studies, heart weight and fluid accumulation (monkeys); assay type: in vivo; details: therapeutically relevant doses, data not shown

C=C/C=C(\C=C)C(=O)NCCOC(=O)C(Oc1cccc(C(F)(F)F)c1)c1ccc(Cl)cc1 (centres unmarked) [Compound 19.4]
half-life [1]: < 1 h

CC(=O)NCCOC(=O)C(Oc1cccc(C(F)(F)F)c1)c1ccc(Cl)cc1 (single isomer, unassigned; (-)) [(−) halofenate, (−) 2-acetamidoethyl 4-chlorophenyl-(3-trifluoromethylphenoxy)acetate]
adverse effects on selected parameters: upper GI tract, liver, blood, kidney ([2]; additional analyses, data not shown): not associated with an excess of adverse effects | serum triglycerides ([2]; additional results, data not shown): lowered serum triglycerides substantially | incidence of edema formation compared to combined placebo groups ([2]; both studies, dose range 200- to 600 mg (FIG. 17)): did not increase the incidence of edema formation | Discontinued due to AE ([2]; first study, 200 mg group): 3 (4.1%) | Discontinued due to AE ([2]; first study, 400 mg group): 3 (4.3%) | plasma glucose levels as judged by HbA1c compared to placebo ([2]; first study, 200- and 400 mg (FIG. 8)): lowered plasma glucose levels as judged by HbA1c levels | edema formation compared to placebo ([2]; first study, 200- and 400 mg (FIG. 9)): prevented edema formation | weight gain compared to placebo ([2]; first study, 200- and 400 mg (FIG. 10)): did not induce weight gain | fasting plasma glucose levels compared to placebo ([2]; first study, 200- and 400 mg, 3 month treatment (FIG. 7)): lowered fasting plasma glucose levels | plasma glucose levels as judged by HbA1c compared to placebo ([2]; first study, 200- and 400 mg, sites 60 and 70 removed (FIG. 15)): lowered plasma glucose levels as judged by HbA1c levels | fasting plasma glucose levels compared to placebo ([2]; first study, 200- and 400 mg, sites 60 and 70 removed (FIG. 16)): lowered fasting plasma glucose levels | fasting plasma glucose levels compared to placebo ([2]; second study, 600 mg (FIG. 11)): lowered fasting plasma glucose levels | weight gain compared to placebo ([2]; second study, 600 mg (FIG. 18)): did not induce weight gain | plasma glucose levels as judged by HbA1c ([2]; second study, 600 mg, all sites, placebo group demonstrated a comparable response (FIG. 12)): lowered plasma glucose levels as judged by HbA1c levels in the experimental group substantially from baseline | plasma glucose levels as judged by HbA1c compared to placebo ([2]; second study, 600 mg, sites 60 and 70 removed (FIG. 13)): lowered plasma glucose levels as judged by HbA1c levels | fasting plasma glucose levels compared to placebo ([2]; second study, 600 mg, sites 60 and 70 removed (FIG. 14)): lowered fasting plasma glucose levels | ability to induce PPARγ expression [3]: a few fold | antagonism of the agonist activity of rosiglitazone [3]: significantly antagonizing the agonist activity of rosiglitazone | hsCRP levels ([4]; human patients, 14 days of treatment, dose dependent (FIG. 20)): lower hsCRP levels | blood glucose levels ([4]; patients also receiving glyburide, 14 days of treatment (FIG. 19)): substantially lower blood glucose levels | heart weight or fluid accumulation [5]: did not cause increases at therapeutically relevant doses in heart weight or fluid accumulation | heart weight or fluid accumulation [6]: did not cause increases at therapeutically relevant doses in heart weight or fluid accumulation
